# Test results as given in ChEMBL document CHEMBL1275366, “Design, synthesis, and development of novel guaianolide-endoperoxides as potential antimalarial agents” (J Med Chem, 2010).
# The source made the active and inactive calls. No cut-off for these calls is given here.
# Key:
# Plasmodium falciparum [1] = assay: Antiplasmodial activity against chloroquine-resistant Plasmodium falciparum W2 infected in human erythrocytes assessed as reduction in parasitaemia up to 10 uM after 48 hrs by FACS; assay type: functional, organism-based
# Vero [2] = assay: Cytotoxicity against african green monkey Vero cells at => 5000 ng/mL; assay type: cell-based; conditions: chlorocebus sabaeus
# Plasmodium falciparum [3] = assay: Antiplasmodial activity against chloroquine-resistant Plasmodium falciparum W2 infected in human erythrocytes assessed as reduction in parasitaemia after 48 hrs by FACS; assay type: functional, organism-based; conditions: W2, 48 h
# Vero [4] = assay: Cytotoxicity against african green monkey Vero cells at 1200 ng/mL; assay type: cell-based; conditions: chlorocebus sabaeus
Compound,IC50 (Plasmodium falciparum [3]) [nM],other results
CC(=O)OC[C@H](C)[C@]12C=C[C@](C)(OO1)[C@H]1C[C@H](O)[C@H](C)[C@H]1C2=O,,inhibition (Plasmodium falciparum [1]): inactive
CCO[C@H]1O[C@@H]2[C@@H]3[C@@H](C)[C@@H](OCc4ccc(OC)cc4)C[C@@H]3[C@]3(C)C=C[C@]2(OO3)[C@H]1C,13,Activity (Vero [2]): Non-toxic
COc1ccc(CO[C@H]2C[C@H]3[C@@H]([C@H]2C)[C@H]2OC(O)[C@H](C)[C@@]24C=C[C@]3(C)OO4)cc1 (some centres not stated),1040,
COc1ccc(CO[C@H]2C[C@H]3[C@@H]([C@H]2C)[C@H]2OC[C@H](C)[C@@]24C=C[C@]3(C)OO4)cc1,230,
C/C=C(/C)C(=O)O[C@H]1C(C)=C2[C@H]([C@@H]1OC(=O)CCCCCCC)[C@@](C)(OC(C)=O)C[C@H](OC(=O)CCC)[C@@]1(O)[C@H]2OC(=O)[C@@]1(C)O [THAPSIGARGIN],,Activity (Vero [4]): Toxic
COc1ccc(CO[C@H]2C[C@H]3[C@@H]([C@H]2C)[C@H]2OC(O)[C@H](C)[C@@]24CC[C@]3(C)OO4)cc1 (some centres not stated),,inhibition (Plasmodium falciparum [1]): inactive
CC(=O)OC[C@H](C)[C@]12C=C[C@](C)(OO1)[C@H]1C[C@H](O)[C@H](C)[C@H]1[C@H]2O,,inhibition (Plasmodium falciparum [1]): inactive
CCO[C@H]1O[C@@H]2[C@@H]3[C@@H](C)[C@@H](OCc4ccc(OC)cc4)C[C@@H]3[C@]3(C)CC[C@]2(OO3)[C@H]1C,24,Activity (Vero [2]): Non-toxic
CC(=O)OC[C@H](C)[C@]12C=C[C@](C)(OO1)[C@H]1CC(=O)[C@H](C)[C@H]1C2=O,4600,
CCO[C@@H]1O[C@@H]2[C@@H]3[C@@H](C)[C@@H](OCc4ccc(OC)cc4)C[C@@H]3[C@]3(C)C=C[C@]2(OO3)[C@H]1C,620,Activity (Vero [2]): Non-toxic
C[C@H]1C(=O)C[C@H]2[C@@H]1[C@H]1OC(=O)[C@H](C)[C@@]13CC[C@]2(C)OO3,270,
COc1ccc(CO[C@H]2C[C@H]3[C@@H]([C@H]2C)[C@H]2OC(=O)[C@H](C)[C@@]24C=C[C@]3(C)OO4)cc1,290,Activity (Vero [2]): Non-toxic
C[C@@H]1[C@H]2[C@@H](O)[C@@]3([C@@H](C)CO)C=C[C@](C)(OO3)[C@H]2C[C@@H]1O,,inhibition (Plasmodium falciparum [1]): inactive
C[C@@H]1[C@H]2[C@H]3OC(=O)[C@H](C)[C@@]34CC[C@](C)(OO4)[C@H]2C[C@@H]1O,610,
C[C@@H]1[C@H]2[C@H]3OC(=O)[C@H](C)[C@@]34C=C[C@](C)(OO4)[C@H]2C[C@@H]1O,1050,
C[C@@H]1[C@H]2[C@H]3OC[C@H](C)[C@@]34C=C[C@](C)(OO4)[C@H]2C[C@@H]1O,570,
C[C@@H]1CC[C@H]2[C@@H](C)C(=O)O[C@@H]3O[C@@]4(C)CC[C@@H]1[C@]32OO4 [ARTEMISININ],5,
CCO[C@@H]1O[C@@H]2[C@@H]3[C@@H](C)[C@@H](OCc4ccc(OC)cc4)C[C@@H]3[C@]3(C)CC[C@]2(OO3)[C@H]1C,3400,
COc1ccc(CO[C@H]2C[C@H]3[C@@H]([C@H]2C)[C@H]2OC(=O)[C@H](C)[C@@]24CC[C@]3(C)OO4)cc1,370,Activity (Vero [2]): Non-toxic
COc1ccc(CO[C@H]2C[C@H]3[C@@H]([C@H]2C)[C@@H](O)[C@@]2([C@@H](C)CO)C=C[C@]3(C)OO2)cc1,9110,
COc1ccc(CO[C@H]2C[C@H]3[C@@H]([C@H]2C)[C@H]2OC[C@H](C)[C@@]24CC[C@]3(C)OO4)cc1,7500,
COc1ccc(CO[C@H]2C[C@H]3[C@@H]([C@H]2C)[C@@H](O)[C@@]2([C@@H](C)COC(C)=O)C=C[C@]3(C)OO2)cc1,,inhibition (Plasmodium falciparum [1]): inactive
